# Test results: ChEMBL document CHEMBL1139689, “Discovery and preliminary structure-activity relationship studies of novel benzotriazine based compounds as Src inhibitors” (Bioorg Med Chem Lett, 2006)
# What was measured:
# [1] = biological target: Proto-oncogene tyrosine-protein kinase Src (Homo sapiens, UniProt P12931)
# [2] = biological target: Tyrosine-protein kinase Lyn (Homo sapiens, UniProt P07948); assay: Inhibition of Lyn
# [3] = biological target: Tyrosine-protein kinase Fyn (Homo sapiens, UniProt P06241); assay: Inhibition of Fyn
# [4] = biological target: Tyrosine-protein kinase Blk (Homo sapiens, UniProt P51451); assay: Inhibition of Blk
# [5] = biological target: Angiopoietin-1 receptor (Homo sapiens, UniProt Q02763); assay: Inhibition of Tie2
# [6] = biological target: Vascular endothelial growth factor receptor 2 (Homo sapiens, UniProt P35968); assay: Inhibition of VEGFR2
# [7] = biological target: Serine/threonine-protein kinase RAF and Dual specificity mitogen-activated protein kinase kinase 1 (Raf/MEK) (Homo sapiens, UniProt P04049+Q02750); assay: Inhibition of Raf1-MEK1; type: protein assay
# [8] = biological target: Tyrosine-protein kinase ABL1 (Homo sapiens, UniProt P00519); assay: Inhibition of Abl
# [9] = biological target: Tyrosine-protein kinase ABL1 (Homo sapiens, UniProt P00519, T315I); assay: Inhibition of Abl T315I mutant
# [10] = biological target: RAF proto-oncogene serine/threonine-protein kinase (Homo sapiens, UniProt P04049); assay: Inhibition of Raf1 kinase
# [11] = biological target: Tyrosine-protein kinase CSK (Homo sapiens, UniProt P41240); assay: Inhibition of CSK
# [12] = biological target: Ribosomal protein S6 kinase beta-1 (Homo sapiens, UniProt P23443); assay: Inhibition of p70S6K
# Ribosomal protein S6 kinase beta-1, sequence (P23443 whole entry): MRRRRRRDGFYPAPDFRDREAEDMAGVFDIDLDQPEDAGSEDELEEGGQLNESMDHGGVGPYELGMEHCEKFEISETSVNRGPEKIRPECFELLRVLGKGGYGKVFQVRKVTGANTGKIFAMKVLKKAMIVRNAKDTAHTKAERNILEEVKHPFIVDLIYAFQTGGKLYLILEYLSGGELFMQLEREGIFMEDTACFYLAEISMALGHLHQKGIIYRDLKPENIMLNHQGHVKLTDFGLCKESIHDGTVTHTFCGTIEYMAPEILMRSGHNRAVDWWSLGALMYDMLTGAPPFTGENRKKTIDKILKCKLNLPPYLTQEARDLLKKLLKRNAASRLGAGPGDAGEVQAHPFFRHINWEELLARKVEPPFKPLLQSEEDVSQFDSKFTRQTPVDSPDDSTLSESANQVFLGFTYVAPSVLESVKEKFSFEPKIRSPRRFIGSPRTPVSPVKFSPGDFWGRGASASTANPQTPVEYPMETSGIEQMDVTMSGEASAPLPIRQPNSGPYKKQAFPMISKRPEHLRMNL
# Proto-oncogene tyrosine-protein kinase Src, sequence (P12931 2-536 limits assumed): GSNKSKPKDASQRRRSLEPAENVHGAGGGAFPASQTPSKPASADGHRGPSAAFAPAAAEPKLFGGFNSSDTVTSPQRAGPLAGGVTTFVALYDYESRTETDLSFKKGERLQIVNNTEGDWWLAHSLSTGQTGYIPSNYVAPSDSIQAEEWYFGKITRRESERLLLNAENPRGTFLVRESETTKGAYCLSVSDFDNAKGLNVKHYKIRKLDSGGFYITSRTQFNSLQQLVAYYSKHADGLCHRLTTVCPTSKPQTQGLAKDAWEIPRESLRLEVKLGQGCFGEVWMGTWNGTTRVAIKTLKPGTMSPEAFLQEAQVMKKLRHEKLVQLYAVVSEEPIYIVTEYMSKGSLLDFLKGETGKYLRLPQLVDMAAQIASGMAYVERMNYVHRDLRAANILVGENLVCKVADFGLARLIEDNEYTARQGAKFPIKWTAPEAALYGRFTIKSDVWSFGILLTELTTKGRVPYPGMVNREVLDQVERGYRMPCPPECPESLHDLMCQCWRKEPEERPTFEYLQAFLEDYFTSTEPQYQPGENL
# Angiopoietin-1 receptor, sequence (Q02763 whole entry): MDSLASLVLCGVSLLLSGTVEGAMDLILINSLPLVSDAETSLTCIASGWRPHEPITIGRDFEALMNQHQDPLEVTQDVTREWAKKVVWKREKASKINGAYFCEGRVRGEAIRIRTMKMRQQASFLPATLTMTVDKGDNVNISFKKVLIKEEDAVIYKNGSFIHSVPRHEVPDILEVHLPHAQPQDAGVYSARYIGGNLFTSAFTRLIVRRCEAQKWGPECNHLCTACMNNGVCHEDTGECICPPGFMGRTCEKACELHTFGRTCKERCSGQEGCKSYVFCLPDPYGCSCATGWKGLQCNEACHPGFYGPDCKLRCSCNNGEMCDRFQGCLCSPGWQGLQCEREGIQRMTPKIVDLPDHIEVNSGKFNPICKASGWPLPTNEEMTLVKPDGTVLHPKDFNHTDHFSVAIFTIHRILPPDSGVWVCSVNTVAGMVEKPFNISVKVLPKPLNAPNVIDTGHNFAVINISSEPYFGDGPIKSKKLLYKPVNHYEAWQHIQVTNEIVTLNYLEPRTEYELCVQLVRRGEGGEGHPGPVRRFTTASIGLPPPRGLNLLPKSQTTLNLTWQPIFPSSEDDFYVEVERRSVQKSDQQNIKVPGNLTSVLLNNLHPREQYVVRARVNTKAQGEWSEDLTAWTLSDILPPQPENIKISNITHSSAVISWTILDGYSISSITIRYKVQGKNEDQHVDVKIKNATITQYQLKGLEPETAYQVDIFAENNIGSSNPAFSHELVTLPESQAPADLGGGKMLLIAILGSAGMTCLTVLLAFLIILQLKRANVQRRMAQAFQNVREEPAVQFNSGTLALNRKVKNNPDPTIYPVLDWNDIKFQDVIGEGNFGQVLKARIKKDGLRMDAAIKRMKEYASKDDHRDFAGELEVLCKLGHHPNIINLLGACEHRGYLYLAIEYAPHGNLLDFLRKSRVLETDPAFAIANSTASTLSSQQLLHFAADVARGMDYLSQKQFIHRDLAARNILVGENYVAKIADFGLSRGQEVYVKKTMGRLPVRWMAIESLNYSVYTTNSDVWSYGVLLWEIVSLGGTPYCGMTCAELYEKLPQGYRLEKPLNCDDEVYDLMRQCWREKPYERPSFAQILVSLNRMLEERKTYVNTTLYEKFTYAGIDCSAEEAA
# Tyrosine-protein kinase Blk, sequence (P51451 whole entry): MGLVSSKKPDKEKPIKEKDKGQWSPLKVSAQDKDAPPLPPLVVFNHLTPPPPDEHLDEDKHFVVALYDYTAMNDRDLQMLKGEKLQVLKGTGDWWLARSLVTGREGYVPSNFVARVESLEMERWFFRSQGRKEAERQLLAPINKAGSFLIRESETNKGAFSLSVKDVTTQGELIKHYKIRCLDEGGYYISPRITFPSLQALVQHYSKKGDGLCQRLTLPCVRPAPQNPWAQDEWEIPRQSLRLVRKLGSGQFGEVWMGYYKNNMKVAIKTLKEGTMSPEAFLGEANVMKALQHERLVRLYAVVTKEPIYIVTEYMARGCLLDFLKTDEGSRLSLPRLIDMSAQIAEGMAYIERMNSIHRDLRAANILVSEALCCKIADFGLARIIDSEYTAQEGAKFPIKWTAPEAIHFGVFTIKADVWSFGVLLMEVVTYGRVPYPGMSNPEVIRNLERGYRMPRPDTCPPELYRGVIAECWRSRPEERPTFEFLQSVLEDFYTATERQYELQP
# Tyrosine-protein kinase Lyn, sequence (P07948 whole entry): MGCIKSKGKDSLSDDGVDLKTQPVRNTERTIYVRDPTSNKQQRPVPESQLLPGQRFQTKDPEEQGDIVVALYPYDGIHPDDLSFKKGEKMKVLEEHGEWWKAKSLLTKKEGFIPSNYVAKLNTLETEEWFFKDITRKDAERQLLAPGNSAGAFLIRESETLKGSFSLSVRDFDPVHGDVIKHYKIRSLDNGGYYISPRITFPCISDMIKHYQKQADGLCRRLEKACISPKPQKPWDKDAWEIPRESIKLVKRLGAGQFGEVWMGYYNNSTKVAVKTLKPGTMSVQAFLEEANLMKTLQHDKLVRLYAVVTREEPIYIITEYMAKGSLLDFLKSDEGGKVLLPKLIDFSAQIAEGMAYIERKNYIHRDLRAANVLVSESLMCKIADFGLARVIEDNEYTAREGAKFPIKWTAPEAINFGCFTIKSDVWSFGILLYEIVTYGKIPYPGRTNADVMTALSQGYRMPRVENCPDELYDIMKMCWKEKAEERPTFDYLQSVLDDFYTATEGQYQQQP
# Vascular endothelial growth factor receptor 2, sequence (P35968 whole entry): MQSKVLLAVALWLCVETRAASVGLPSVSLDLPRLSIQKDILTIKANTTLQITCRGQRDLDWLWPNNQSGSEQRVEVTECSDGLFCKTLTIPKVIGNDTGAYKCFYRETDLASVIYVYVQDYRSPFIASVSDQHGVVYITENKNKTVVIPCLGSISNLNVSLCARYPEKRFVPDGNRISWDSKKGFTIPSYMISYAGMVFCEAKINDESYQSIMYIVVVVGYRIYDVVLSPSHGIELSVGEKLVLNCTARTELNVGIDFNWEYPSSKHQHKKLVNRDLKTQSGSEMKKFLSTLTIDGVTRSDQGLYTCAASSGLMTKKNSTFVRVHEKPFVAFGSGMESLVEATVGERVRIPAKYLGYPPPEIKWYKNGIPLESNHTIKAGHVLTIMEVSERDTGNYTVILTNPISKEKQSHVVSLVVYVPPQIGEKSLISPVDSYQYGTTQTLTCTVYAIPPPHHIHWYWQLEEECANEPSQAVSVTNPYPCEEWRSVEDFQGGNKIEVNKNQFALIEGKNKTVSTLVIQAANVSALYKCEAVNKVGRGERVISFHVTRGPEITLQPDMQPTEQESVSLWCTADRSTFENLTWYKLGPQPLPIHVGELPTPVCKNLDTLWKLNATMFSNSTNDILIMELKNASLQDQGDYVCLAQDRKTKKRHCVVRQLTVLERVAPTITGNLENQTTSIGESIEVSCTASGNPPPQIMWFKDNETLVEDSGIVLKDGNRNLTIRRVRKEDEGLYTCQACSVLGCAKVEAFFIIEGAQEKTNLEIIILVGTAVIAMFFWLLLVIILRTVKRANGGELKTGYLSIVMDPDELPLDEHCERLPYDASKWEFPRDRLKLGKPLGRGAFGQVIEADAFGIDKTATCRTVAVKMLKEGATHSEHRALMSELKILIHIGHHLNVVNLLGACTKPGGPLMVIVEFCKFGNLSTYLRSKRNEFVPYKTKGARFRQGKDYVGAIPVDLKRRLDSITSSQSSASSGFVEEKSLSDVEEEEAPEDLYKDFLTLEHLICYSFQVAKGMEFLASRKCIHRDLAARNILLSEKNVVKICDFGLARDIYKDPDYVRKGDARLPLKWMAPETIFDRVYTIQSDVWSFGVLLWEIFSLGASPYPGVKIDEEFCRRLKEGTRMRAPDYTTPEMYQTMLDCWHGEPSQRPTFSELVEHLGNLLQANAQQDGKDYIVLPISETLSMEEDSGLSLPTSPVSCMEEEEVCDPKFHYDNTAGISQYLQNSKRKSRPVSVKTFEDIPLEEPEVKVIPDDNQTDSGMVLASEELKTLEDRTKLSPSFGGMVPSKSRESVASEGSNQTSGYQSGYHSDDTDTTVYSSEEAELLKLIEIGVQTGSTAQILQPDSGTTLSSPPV
IC50 [1],SMILES,other results
3600 nM,Cc1cc(-c2c(Cl)cccc2Cl)cc2nnc(N)nc12,–
> 50000 nM,Cc1cc(C)c(-c2cc(C)c3nc(Nc4ccccc4)nnc3c2)c(C)c1,–
7400 nM,Cc1cccc(C)c1-c1cc(C)c2nc(N)nnc2c1,–
1500 nM,Cc1cc(-c2cc(O)ccc2Cl)cc2nnc(N)nc12,–
> 50000 nM,Nc1nnc2cc(-c3ccccc3)ccc2n1,–
> 50000 nM,Cc1cccc(Nc2nnc3cc(-c4c(C)cccc4C)cc(C)c3n2)c1C,–
> 50000 nM,Cc1cccc(C)c1-c1cc(C)c2nc(Nc3ccccn3)nnc2c1,–
40 nM,Cc1cccc(C)c1-c1cc(C)c2nc(Nc3ccncc3)nnc2c1,–
2200 nM,Cc1cccc(C)c1-c1ccc2nc(N)nnc2c1,–
410 nM,Cc1cccc(C)c1-c1cc(C)c2nc(Nc3ccccc3)nnc2c1,–
> 50000 nM,Cc1cc(-c2ccccc2Cl)cc2nnc(N)nc12,–
> 50000 nM,COc1ccccc1Nc1nnc2cc(-c3c(C)cccc3C)cc(C)c2n1,–
12000 nM,Nc1nnc2cc(-c3ccc4c(c3)OCO4)ccc2n1,–
5200 nM,Nc1nnc2cc(-c3ccc4ccccc4c3)ccc2n1,–

# Second part, the molecule before the results:
SMILES,IC50 [1],other results
Cc1cccc(C)c1-c1cc(C)c2nc(Nc3cccc(S(=O)(=O)N4CCNCC4)c3)nnc2c1,480 nM,–
Cc1cccc(C)c1-c1cc(C)c2nc(Nc3cccc4cccnc34)nnc2c1,> 50000 nM,–
CCOC1CN(C)CCN1c1cccc(Nc2nnc3cc(-c4c(C)cccc4C)cc(C)c3n2)c1 (stereo not given),41 nM,–
CCN(CC)CCOc1ccc(Nc2nnc3cc(-c4c(C)cccc4C)cc(C)c3n2)cc1,10 nM,–
CCCCc1ccc(Nc2nnc3cc(-c4c(C)cccc4C)cc(C)c3n2)cc1,> 50000 nM,–
CC(=O)Nc1nnc2cc(-c3c(C)cccc3C)cc(C)c2n1,> 50000 nM,–
Cc1ccc(C)c(Nc2nnc3cc(-c4c(C)cccc4C)cc(C)c3n2)c1,> 50000 nM,–
CCCOC1CN(C)CCN1c1cccc(Nc2nnc3cc(-c4c(C)cccc4C)cc(C)c3n2)c1 (stereo not given),40 nM,–
CCOC1CN(c2ccc(Nc3nnc4cc(-c5c(C)cccc5C)cc(C)c4n3)cc2)CCO1 (stereo not given),32 nM,–
Cc1cccc(C)c1-c1cc(C)c2nc(Nc3ccc(OCCN4CCCC4)cc3)nnc2c1,–,IC50 [2]: 21 nM; IC50 [3]: 23 nM; IC50 [4]: 1320 nM; IC50 [5]: 678 nM; IC50 [6]: 555 nM; IC50 [7]: 69 nM; IC50 [8]: 20 nM; IC50 [9]: 5990 nM; IC50 [10]: 68 nM; IC50 [11]: 659 nM; IC50 [12]: 2710 nM
Cc1ccc(Nc2nnc3cc(-c4c(C)cccc4C)cc(C)c3n2)c(C)c1,> 50000 nM,–
